Among the data in US8119624B2, “Fused phenyl amido heterocyclic compounds” (Pfizer Inc., priority 2006, dated 2012) are activation, EC50 and Emax values, retold here.

The target of this experiment is T1, Full-length glucokinase (beta cell isoform) (Homo sapiens, UniProt P35557).
T1 construct: Full-length glucokinase (beta cell isoform) was His-tagged at N-terminus; His tag (N); made in house
T1 sequence (P35557 1-465): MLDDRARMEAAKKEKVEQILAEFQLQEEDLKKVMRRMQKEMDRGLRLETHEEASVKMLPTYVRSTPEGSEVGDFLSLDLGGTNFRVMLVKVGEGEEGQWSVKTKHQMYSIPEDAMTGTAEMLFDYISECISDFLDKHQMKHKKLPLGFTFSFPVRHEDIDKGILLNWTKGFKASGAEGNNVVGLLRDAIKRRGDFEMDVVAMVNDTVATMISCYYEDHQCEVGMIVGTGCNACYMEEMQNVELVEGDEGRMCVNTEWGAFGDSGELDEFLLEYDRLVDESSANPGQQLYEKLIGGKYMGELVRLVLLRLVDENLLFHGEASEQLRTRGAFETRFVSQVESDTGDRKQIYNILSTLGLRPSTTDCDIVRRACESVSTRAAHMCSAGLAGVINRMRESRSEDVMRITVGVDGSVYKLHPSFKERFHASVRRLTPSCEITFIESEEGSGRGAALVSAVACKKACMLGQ
Kind of experiment: Glucokinase biochemical assay (PK/LDH-coupled, NADH depletion at 340 nm): % activation, EC50, % max activation. The following applies: 5 mM glucose; for activation at 10 µM: 10 uM compound, % Activation=(Va/Vo−1)×100, read-out: % Activation at 10 uM; for EC50: GK activation, read-out: EC50; for Emax: fitted maximum activation, read-out: % Max Activation. Summed up:
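Activation expressed as (Va/Vo−1)×100, where initial rates with and without compound come from NADH depletion at 340 nm over 200–900 s. Enzyme is His-tagged human beta-cell GK, full length, run at room temperature in HEPES buffer with 1 mM ATP and 5 mM glucose. DMSO 1%.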

As a reminder, the EC50 is the concentration needed to bring the measured effect to its halfway point. `COCCN(C)C(=O)c1ccc(Oc2cc(C(=O)Nc3ccn(C)n3)cc3c2CC(C)(C)O3)cc1F` [Example 64, 4-{3-Fluoro-4-[(2-methoxy-ethyl)-methyl-carbamoyl]-phenoxy}-2,2-dimethyl-2,3-dihydro-benzofuran-6-carboxylic acid(1-methyl-1H-pyrazol-3-yl)-amide]: the activation at 10 µM was 172%, the EC50 was 270 nM and the Emax was 158%.
`Cn1ccc(NC(=O)c2cc(Oc3ccc(C(=O)Nc4ccn(C)n4)c(F)c3)c3c(c2)OC(C)(C)C3)n1` [Example 65, 4-[3-Fluoro-4-(1-methyl-1H-pyrazol-3-ylcarbamoyl)-phenoxy]-2,2-dimethyl-2,3-dihydro-benzofuran-6-carboxylic acid(1-methyl-1H-pyrazol-3-yl)-amide]: the activation at 10 µM was found to be 147%, the EC50 was 240 nM and the Emax came to 141%.
Turning to `CN(CCO)C(=O)c1ccc(Oc2cc(C(=O)Nc3ccn(C)n3)cc3c2CC(C)(C)O3)cc1F` [Example 66, 4-{3-Fluoro-4-[(2-hydroxy-ethyl)-methyl-carbamoyl]-phenoxy}-2,2-dimethyl-2,3-dihydro-benzofuran-6-carboxylic acid(1-methyl-1H-pyrazol-3-yl)-amide], the activation at 10 µM stood at 149%, the EC50 was 410 nM and the Emax was determined as 168%.
Regarding `CN(CC#N)C(=O)c1ccc(Oc2cc(C(=O)Nc3ccn(C)n3)cc3c2CC(C)(C)O3)cc1F` [Example 67, 4-[4-(Cyanomethyl-methyl-carbamoyl)-3-fluoro-phenoxy]-2,2-dimethyl-2,3-dihydro-benzofuran-6-carboxylic acid(1-methyl-1H-pyrazol-3-yl)-amide], the activation at 10 µM was found to be 131%, the EC50 came out at 66 nM and the Emax came to 130%.
In the case of `COCCNC(=O)c1ccc(Oc2cc(C(=O)Nc3ccn(C)n3)cc3c2CC(C)(C)O3)cc1F` [Example 68, 4-[3-Fluoro-4-(2-methoxy-ethylcarbamoyl)-phenoxy]-2,2-dimethyl-2,3-dihydro-benzofuran-6-carboxylic acid(1-methyl-1H-pyrazol-3-yl)-amide], the activation at 10 µM worked out at 146%, the EC50 was 660 nM and the Emax was determined as 175%.
The like results for `CNC(=O)c1ccc(Oc2cc(C(=O)Nc3ccn(C)n3)cc3c2CC(C)(C)O3)cc1F` [Example 69, 4-(3-Fluoro-4-methylcarbamoyl-phenoxy)-2,2-dimethyl-2,3-dihydro-benzofuran-6-carboxylic acid(1-methyl-1H-pyrazol-3-yl)-amide] were, in that order, 122%, 370 nM and 129%.
With `CCNC(=O)c1ccc(Oc2cc(C(=O)Nc3ccn(C)n3)cc3c2CC(C)(C)O3)cc1F` [Example 70, 4-(4-Ethylcarbamoyl-3-fluoro-phenoxy)-2,2-dimethyl-2,3-dihydro-benzofuran-6-carboxylic acid(1-methyl-1H-pyrazol-3-yl)-amide], the activation at 10 µM came out at 132%, the 50% effective concentration (EC50) came out at 150 nM and the Emax stood at 118%.
As for `CC(C)NC(=O)c1ccc(Oc2cc(C(=O)Nc3ccn(C)n3)cc3c2CC(C)(C)O3)cc1F` [Example 71, 4-(3-Fluoro-4-isopropylcarbamoyl-phenoxy)-2,2-dimethyl-2,3-dihydro-benzofuran-6-carboxylic acid(1-methyl-1H-pyrazol-3-yl)-amide], the activation at 10 µM came out at 181%, the EC50 turned out to be 410 nM and the Emax is 167%.
For the compound `Cn1ccc(NC(=O)c2cc(Oc3ccc(C(=O)NCCO)c(F)c3)c3c(c2)OC(C)(C)C3)n1` [Example 72, 4-[3-Fluoro-4-(2-hydroxy-ethylcarbamoyl)-phenoxy]-2,2-dimethyl-2,3-dihydro-benzofuran-6-carboxylic acid(1-methyl-1H-pyrazol-3-yl)-amide], the activation at 10 µM amounted to 182%, the EC50 is 950 nM and the Emax came to 161%.
Taken in the same sequence, the figures for `Cn1ccc(NC(=O)c2cc(Oc3ccc(C(=O)NC4CC4)c(F)c3)c3c(c2)OC(C)(C)C3)n1` [Example 73, 4-(4-Cyclopropylcarbamoyl-3-fluoro-phenoxy)-2,2-dimethyl-2,3-dihydro-benzofuran-6-carboxylic acid(1-methyl-1H-pyrazol-3-yl)-amide] were 254%, 390 nM and 232%.
Taken in the same sequence, the figures for `Cn1ccc(NC(=O)c2cc(Oc3ccc(C(=O)NC4CCC4)c(F)c3)c3c(c2)OC(C)(C)C3)n1` [Example 74, 4-(4-Cyclobutylcarbamoyl-3-fluoro-phenoxy)-2,2-dimethyl-2,3-dihydro-benzofuran-6-carboxylic acid(1-methyl-1H-pyrazol-3-yl)-amide] were 285%, 540 nM and 258%.
Taken in the same sequence, the figures for `Cn1ccc(NC(=O)c2cc(Oc3ccc(C(=O)NCCF)c(F)c3)c3c(c2)OC(C)(C)C3)n1` [Example 75, 4-[3-Fluoro-4-(2-fluoro-ethylcarbamoyl)-phenoxy]-2,2-dimethyl-2,3-dihydro-benzofuran-6-carboxylic acid(1-methyl-1H-pyrazol-3-yl)-amide] were 193%, 260 nM and 189%.
Consider `Cn1ccc(NC(=O)c2cc(Oc3ccc(C(=O)NCC(F)F)c(F)c3)c3c(c2)OC(C)(C)C3)n1` [Example 76, 4-[4-(2,2-Difluoro-ethylcarbamoyl)-3-fluoro-phenoxy]-2,2-dimethyl-2,3-dihydro-benzofuran-6-carboxylic acid(1-methyl-1H-pyrazol-3-yl)-amide], for which the activation at 10 µM was 203%, the EC50 is 470 nM and the Emax was 206%.
Turning to `CC1(C)Cc2c(OCc3ccccc3)cc(C(=O)Nc3ccc(C(=O)O)cn3)cc2O1` [Example 77, 6-[(4-Benzyloxy-2,2-dimethyl-2,3-dihydro-benzofuran-6-carbonyl)-amino]-nicotinic acid], the activation at 10 µM turned out to be 64.4%, the EC50 was 150 nM and the Emax amounted to 66%.
With `C[C@@H](Cc1ccccc1)Oc1cc(C(=O)Nc2ccn(C)n2)cc2c1CC(C)(C)O2` [Example 78, 2,2-Dimethyl-4-((S)-1-methyl-2-phenyl-ethoxy)-2,3-dihydro-benzofuran-6-carboxylic acid (1-methyl-1H-pyrazol-3-yl)-amide], the activation at 10 µM came to 139%, the EC50 was 1470 nM and the Emax turned out to be 149%.
Taken in the same sequence, the figures for `COc1ccc(CC(C)Oc2cc(C(=O)Nc3ccn(C)n3)cc3c2CC(C)(C)O3)cc1` (stereo not drawn) [Example 79, 4-[2-(4-Methoxy-phenyl)-1-methyl-ethoxy]-2,2-dimethyl-2,3-dihydro-benzofuran-6-carboxylic acid (1-methyl-1H-pyrazol-3-yl)-amide] were 148%, 2100 nM and 171%.
With `Cn1ccc(NC(=O)c2cc(OCc3ccccc3)c3c(c2)OC(C)(C)C3)n1` [Example 80, 4-Benzyloxy-2,2-dimethyl-2,3-dihydro-benzofuran-6-carboxylic acid (1-methyl-1H-pyrazol-3-yl)-amide], the activation at 10 µM was 111%, the EC50 amounted to 5900 nM and the Emax is 176%.
The like results for `CC(Oc1cc(C(=O)Nc2ccn(C)n2)cc2c1CC(C)(C)O2)c1ccccn1` (stereo not drawn) [Example 81, 2,2-Dimethyl-4-(1-pyridin-2-yl-ethoxy)-2,3-dihydro-benzofuran-6-carboxylic acid (1-methyl-1H-pyrazol-3-yl)-amide] were, in that order, 112%, 5300 nM and 148%.
Taken in the same sequence, the figures for `CC(Oc1cc(C(=O)Nc2ccn(C)n2)cc2c1CC(C)(C)O2)c1cnccn1` (stereo not drawn) [Example 82, 2,2-Dimethyl-4-(1-pyrazin-2-yl-ethoxy)-2,3-dihydro-benzofuran-6-carboxylic acid (1-methyl-1H-pyrazol-3-yl)-amide] were 110%, 5100 nM and 135%.
For `Cc1nccnc1C(C)Oc1cc(C(=O)Nc2ccn(C)n2)cc2c1CC(C)(C)O2` (stereo not drawn) [Example 83, 2,2-Dimethyl-4-[1-(3-methyl-pyrazin-2-yl)-ethoxy]-2,3-dihydro-benzofuran-6-carboxylic acid (1-methyl-1H-pyrazol-3-yl)-amide], the activation at 10 µM was 78.3%, the EC50 was found to be 8200 nM and the Emax was 148%.
With `COCC(C)Oc1cc(C(=O)Nc2ccn(C)n2)cc2c1CC(C)(C)O2` (stereo not drawn) [Example 84, 4-(2-Methoxy-1-methyl-ethoxy)-2,2-dimethyl-2,3-dihydro-benzofuran-6-carboxylic acid (1-methyl-1H-pyrazol-3-yl)-amide], the activation at 10 µM was 58.4% and the EC50 was > 10000 nM.
Regarding `CC(CN1CCOCC1)Oc1cc(C(=O)Nc2ccn(C)n2)cc2c1CC(C)(C)O2` (stereo not drawn) [Example 85, 2,2-Dimethyl-4-(1-methyl-2-morpholin-4-yl-ethoxy)-2,3-dihydro-benzofuran-6-carboxylic acid (1-methyl-1H-pyrazol-3-yl)-amide], the activation at 10 µM is 12%.
